Measurements taken from patent US10722484B2, “Methods of cancer treatment” (K-Gen, Inc., priority 2016, dated 2020).
Read-outs that look alike come from different tables or passages of the source.

Tests used:
[1] = system: A549 lung cancer cell line; assay: Combination viability/proliferation assays (384-well IC50 ratio, 96-well MacSynergy II); format: cell-based; conditions: for Ratio ([…] DMSO IC50/combination IC50) / Combination in A549: K101A (synergism/antagonism) / Combination in A549: K102 (synergism/antagonism) / Combination in A549: K101E (synergism/antagonism): A549; for effect in combination with the PKC activator compounds in inhibiting the growth of A549 cells: PKC activator compounds (K101A, K101E, K102); for Combination in A549: K101A (synergism/antagonism): agent assayed in combination with K101A; for Combination in A549: K101A (synergism/antagonism) / Combination in A549: K102 (synergism/antagonism): * 2-3 concentrations, # full concentration ranges; for Combination in A549: K102 (synergism/antagonism): agent assayed in combination with K102; for Combination in A549: K101E (synergism/antagonism): agent assayed in combination with K101E
Experimental: (§1) A 96-well MacSynergy II format for combination test was also used. […] The analysis was done with the SQRT(Data) scale and the four parameter Hill curve was fitted using XLfit5.1 (the MacSynergy II Excel Spreadsheet) for the inhibition data. Synergy (positive number) or Antagonism (negative number) volumes were calculated. […] Three-dimensional MacSynergy II graphs were generated where positive values indicated synergism and negative values indicated antagonism.

Panc2.13 = assay: Combination viability/proliferation assays; format: cell-based; conditions: for effect in combination with K101A: Panc2.13, K101A at 1 μM or at 0.67 μM; for Combination effect, Panc2.13: K101A: agent in combination with K101A
Experimental: as §1

H838 = assay: Proliferation assay (CellTiter Glo); format: cell-based; conditions: H838 (RAS WT); 96 hours
Experimental: (§2) The dose range for most compounds was 4.6 nM-30 μM. The dose ranges for some compounds were adjusted downward to 0.46 nM-3 μM or 0.08 nM-0.5 μM or 0.03 nM-0.2 μM. […] The results are shown in Tables 3-6 for pancreatic cancer, lung cancer, colon/gastric cancer, and leukemia.
(§3) Other cancer cell lines having wild-type K-RAS status and K-RAS mutation at G12 were also screened using the PKC activator compounds. […] K104 was tested in a range of 0.03 nM-0.2 μM. […] The dose ranges were adjusted downward to 0.46 nM-3 μM for K102 and 0.08 nM-0.5 μM for K103 for some cell lines. The results of the screening of cancer cells lines with wild-type K-RAS status and K-RAS mutations at the G12 positions are presented in Table 7.

Colo205 = assay: Proliferation assay (CellTiter Glo); format: cell-based; conditions: Colo205 (RAS WT); 96 hours
Experimental: as §2, §3

H1915 = assay: Proliferation assay (CellTiter Glo); format: cell-based; conditions: H1915 (RAS WT); 96 hours
Experimental: as §2, §3

BxPC-3 = assay: Proliferation assay (CellTiter Glo); format: cell-based; conditions: BxPC-3 (RAS WT); 96 hours
Experimental: as §2, §3

HT29 = assay: Proliferation assay (CellTiter Glo); format: cell-based; conditions: HT29 (RAS WT); 96 hours
Experimental: as §2, §3

MiaPaCa-2 = assay: Proliferation assay (CellTiter Glo); format: cell-based; conditions: 96 hours
HL60 = assay: Proliferation assay (CellTiter Glo); format: cell-based, human; conditions: 96 hours
Experimental: as §2

THP1 = assay: Proliferation assay (CellTiter Glo); format: cell-based, human; conditions: 96 hours
Experimental: as §2

Capan-1 = assay: Proliferation assay (CellTiter Glo); format: cell-based; conditions: 96 hours
Experimental: as §2

AGS = assay: Proliferation assay (CellTiter Glo); format: cell-based; conditions: 96 hours
Experimental: as §2

H358 = assay: Proliferation assay (CellTiter Glo); format: cell-based; conditions: HE58, 96 hours
Experimental: as §2

A549 = assay: Proliferation assay (CellTiter Glo); format: cell-based; conditions: 96 hours
Experimental: as §2

HCT116 = assay: Proliferation assay (CellTiter Glo); format: cell-based; conditions: 96 hours
Experimental: as §2

SW620 = assay: Proliferation assay (CellTiter Glo); format: cell-based; conditions: 96 hours
Experimental: as §2

H727 = assay: Proliferation assay (CellTiter Glo); format: cell-based; conditions: 96 hours
Experimental: as §2

KP-4 = assay: Proliferation assay (CellTiter Glo); format: cell-based; conditions: 96 hours
Experimental: as §2

LS180 = assay: Proliferation assay (CellTiter Glo); format: cell-based; conditions: 96 hours
Experimental: as §2

H441 = assay: Proliferation assay (CellTiter Glo); format: cell-based; conditions: 96 hours
Experimental: as §2

[2] = in combination with 0.0002 μM K102, NC: no change
[3] = in combination with 0.002 μM K102, NC: no change
[4] = in combination with 0.005 μM K101A, NC: no change
[5] = in combination with 0.02 μM K102, NC: no change
[6] = in combination with 0.05 μM K101A, NC: no change
[7] = in combination with 0.5 μM K101A, ratio >2 synergistic, <0.5 antagonistic, NC: no change

O=C1[C@H](Cc2ccc(O)cc2)N2C(=O)CCN(C(=O)NCc3ccccc3)[C@H]2CN1Cc1cccc2ccccc12 [ICG-001, (6S,9aS)-Hexahydro-6-[(4-hydroxyphenyl)methyl]-8-(1-naphthalenylmethyl)-4,7-dioxo-N-(phenylmethyl)-2H-pyrazino[1,2-a]pyrimidine-1(6H)-carboxamide]
Ratio ([…] DMSO IC50/combination IC50) ([1]; in combination with 0.013 μM K102): 0.96 | Ratio ([…] DMSO IC50/combination IC50) ([1]; in combination with 0.04 μM K102): 1.10 | Ratio ([…] DMSO IC50/combination IC50) ([1]; in combination with 0.33 uM K101A): 1.05 | Ratio ([…] DMSO IC50/combination IC50) ([1]; in combination with 1 uM K101A): 1.10 | effect in combination with K101A or K102 in inhibiting the growth of A549 cells ([1]; K101A or K102): did not show synergy | effect in combination with the PKC activator compounds in inhibiting the growth of A549 cells [1]: insignificant synergism or antagonism | Combination in A549: K101A (synergism/antagonism) [1]: None | Combination in A549: K102 (synergism/antagonism) [1]: None | effect in combination with K101A (Panc2.13): strong synergy | Combination effect, Panc2.13: K101A (Panc2.13): Synergism

NC1(c2ccc(-c3nc4ccn5c(=O)[nH]nc5c4cc3-c3ccccc3)cc2)CCC1 [MK2206, 8-[4-(1-aminocyclobutyl)phenyl]-9-phenyl-2H-[1,2,4]triazolo[3,4-f][1,6]naphthyridin-3-one]
Ratio ([…] DMSO IC50/combination IC50) [1, 2]: 0.81 | Ratio ([…] DMSO IC50/combination IC50) [1, 3]: 3.13 | Ratio ([…] DMSO IC50/combination IC50) [1, 4]: 0.68 | Ratio ([…] DMSO IC50/combination IC50) [1, 5]: 5.57 | Ratio ([…] DMSO IC50/combination IC50) [1, 6]: 2.13 | Ratio ([…] DMSO IC50/combination IC50) [1, 7]: 6.03 | effect in combination with the PKC activator compounds in inhibiting the growth of A549 cells [1]: strong synergy | Combination in A549: K101A (synergism/antagonism) [1]: Synergism (strong) | Combination in A549: K101E (synergism/antagonism) [1]: Synergism | Combination in A549: K102 (synergism/antagonism) [1]: Synergism (strong) | Combination effect, Panc2.13: K101A (Panc2.13): None

O=C(c1cc(Cc2n[nH]c(=O)c3ccccc23)ccc1F)N1CCN(C(=O)C2CC2)CC1 [Olaparib]
Ratio ([…] DMSO IC50/combination IC50) [1, 2]: 0.78 | Ratio ([…] DMSO IC50/combination IC50) [1, 3]: 1.43 | Ratio ([…] DMSO IC50/combination IC50) [1, 4]: 0.91 | Ratio ([…] DMSO IC50/combination IC50) [1, 5]: 2.74 | Ratio ([…] DMSO IC50/combination IC50) ([1]; in combination with 0.03 μM K101E (footnote, Olaparib)): 1.15 | Ratio ([…] DMSO IC50/combination IC50) [1, 6]: 1.38 | Ratio ([…] DMSO IC50/combination IC50) ([1]; in combination with 0.3 μM K101E (footnote, Olaparib)): 1.30 | Ratio ([…] DMSO IC50/combination IC50) [1, 7]: 2.76 | Ratio ([…] DMSO IC50/combination IC50) ([1]; in combination with 3 μM K101E (footnote, Olaparib)): 1.97 | effect in combination with the PKC activator compounds in inhibiting the growth of A549 cells [1]: synergistic effect | Combination in A549: K101A (synergism/antagonism) [1]: Synergism | Combination in A549: K101E (synergism/antagonism) [1]: None | Combination in A549: K102 (synergism/antagonism) [1]: Synergism | effect in combination with K101A (Panc2.13): strong synergy | Combination effect, Panc2.13: K101A (Panc2.13): Synergism

CN[C@@H]1C[C@H]2O[C@@](C)([C@@H]1OC)n1c3ccccc3c3c4c(c5c6ccccc6n2c5c31)C(=O)NC4 [STS, staurosporine]
effect in combination with the PKC activator compounds in inhibiting the growth of A549 cells [1]: synergistic effects | Combination in A549: K101A (synergism/antagonism) [1]: Synergism | Combination in A549: K101E (synergism/antagonism) [1]: Synergism | Combination in A549: K102 (synergism/antagonism) [1]: Synergism

Cc1cc(-c2ncc(CC(=O)Nc3ccc(-c4cnccn4)cn3)cc2C)ccn1 [LGK-974, 2-[5-methyl-6-(2-methylpyridin-4-yl)pyridin-3-yl]-N-(5-pyrazin-2-ylpyridin-2-yl)acetamide]
Combination in A549: K101A (synergism/antagonism) [1]: Synergism (minor) | Combination in A549: K102 (synergism/antagonism) [1]: Synergism (minor)

CC(=O)OC12CC(C)C3(O)C(C4OC4(CO)CC4(O)C(O)C(C)=CC43)C1C2(C)C (stereo not shown) [Compound K101D]
Top Inhibition % (H838): 27.7% | Top Inhibition % (Colo205): 42.3% | Top Inhibition % (H1915): 28.6% | Top Inhibition % (BxPC-3): 37.49% | Top Inhibition % (HT29): 10.0% | EC50 (MiaPaCa-2; MiaPaCa-2 (K-RAS: G12C), absolute EC50, read-out: Ab EC50): > 30 µM | Top Inhibition % (MiaPaCa-2; MiaPaCa-2, % of top inhibition): 18.6% | EC50 (HL60; HL60 (N-RAS: Q61L), absolute EC50, read-out: Ab EC50): > 30 µM | Top Inhibition % (HL60; HL60, % of top inhibition): 14.4% | EC50 (THP1; THP1 (N-RAS: G12D), absolute EC50, read-out: Ab EC50): > 30 µM | Top Inhibition % (THP1; THP1, % of top inhibition): 33.6% | EC50 (THP1; THP1, relative EC50, read-out: Re EC50): 14 µM | EC50 (Capan-1; Capan-1 (K-RAS: G12V), absolute EC50, read-out: Ab EC50): > 30 µM | Top Inhibition % (Capan-1; Capan-1, % of top inhibition): 22.3% | EC50 (Capan-1; Capan-1, relative EC50, read-out: Re EC50): 8.66 µM | EC50 (AGS; AGS (gastric, K-RAS: G12D), absolute EC50, read-out: Ab EC50): > 30 µM | Top Inhibition % (AGS; AGS, % of top inhibition): 13.5% | Top Inhibition % (H358; % of top inhibition): 23.0% | EC50 (H358; absolute EC50, read-out: Ab EC50): > 30 µM | EC50 (H358; relative EC50, read-out: Re EC50): 11 µM | EC50 (A549; A549 (K-RAS: G12S), absolute EC50, read-out: Ab EC50): > 30 µM | Top Inhibition % (A549; A549, % of top inhibition): 44.4% | EC50 (A549; A549, relative EC50, read-out: Re EC50): 7.72 µM | EC50 (HCT116; HCT116 (K-RAS: G13D), absolute EC50, read-out: Ab EC50): > 30 µM | Top Inhibition % (HCT116; HCT116, % of top inhibition): 3.0% | EC50 (SW620; SW620 (K-RAS: G12V), absolute EC50, read-out: Ab EC50): > 30 µM | Top Inhibition % (SW620; SW620, % of top inhibition): 0.0% | EC50 (H727; H727 (K-RAS: G12V), absolute EC50, read-out: Ab EC50): > 30 µM | Top Inhibition % (H727; H727, % of top inhibition): 31.8% | EC50 (H727; H727, relative EC50, read-out: Re EC50): 8.37 µM | EC50 (KP-4; KP-4 (K-RAS: G12C), absolute EC50, read-out: Ab EC50): > 30 µM | Top Inhibition % (KP-4; KP-4, % of top inhibition): 47.9% | EC50 (KP-4; KP-4, relative EC50, read-out: Re EC50): 5.47 µM | EC50 (LS180; LS180 (K-RAS: G12D), absolute EC50, read-out: Ab EC50): > 30 µM | Top Inhibition % (LS180; LS180, % of top inhibition): 8.2% | EC50 (H441; H441 (K-RAS: G12V), absolute EC50, read-out: Ab EC50): > 30 µM | Top Inhibition % (H441; H441, % of top inhibition): 11.6%
